Paper PMC10325900, “A conserved motif in the disordered linker of human MLH1 is vital for DNA mismatch repair and its function is diminished by a cancer family mutation” (Nucleic Acids Research, 2023)
“Also recorded” adds a separate entry of the source. No end group written: not given here.

Legend:
[1] = tested on: MLH1 variant p.Arg385Pro and PMS2; experiment: MMR complementation assay with peptide, MLH1 p.Arg385Pro variant; type: biochemical, human; settings: ConMot-32 at 0, 7.5, 18 and 75 μM
Description: Mismatch repair activity was assessed as described in detail before ([79],[81]) (Supplementary Figure S3). […] Mismatched DNA plasmid substrate (Supplementary Figure S3) prepared according to previously published procedures ([81–83]) was added, and reactions in a final volume of 25 μl were incubated at 37°C for 15 min. Repair efficiency was scored by purifying the mismatched DNA plasmid from the reaction and assessing the fraction of homoduplex sequence by restriction digestion of the mismatched site using EcoRV. The substrate was additionally linearized with AseI.
For complementation assays with peptide, the indicated peptide(s) were used at stock concentrations of 50 or 500 μM in HEPES–KOH 20 mM pH 7.6 and supplemented to the MMR reactions.
In an identical way, we analyzed the effects of the ConMot peptide on MMR activity of the defective human MLH1 missense variant p.Arg385Pro (Figure 5).
Figure 5. […] Several MMR assays were performed; a representative agarose gel is shown (top), and average MMR activity values and standard deviations of three independent experiments were calculated (bottom). […]
In parallel, the single- strand nick is ligated. […] 40- 80% absolute repair, determined as signal intensities of the repair bands divided by sum of signal intensities of all plasmid bands, are optimally achieved and allow accurate determination of MMR activity of variants. […]

[2] = Circular dichroism (CD) of ConMot peptide; type: physicochemical; settings: 33 μM peptide, 20 mM Na-phosphate pH 7.2, 20°C, 190–300 nm, three scans, 1 mm light path
Description: A blank was measured with buffer. […] A blank with buffer only was subtracted.

**Q.** Which “peptide concentrations required for restoration of p.Arg385Pro variant, compared with ConMot-deletion variant” value [1] does the source give for “SGSSDKVYAHQMVRTDSREQKLDAFLQPLSKP [ConMot-32]” here?
**A.** identical peptide concentrations as with the ConMot-deletion variant

**Q.** What about the “restoration of DNA mismatch repair activity of the p.Arg385Pro variant” value ([1]; 37°C, 15 min, average of three independent experiments, listed as ConMot peptide) of the same sequence?
**A.** Restoration of MMR activity was again observed; also recorded: could be overcome

**Q.** What about the “secondary structure formation by circular dichroism” value [2] of the same sequence?
**A.** Neither investigation provided evidence for secondary structure formation
